Assay results published in patent US8558002B2, “Sulfoximines as kinase inhibitors” (Allergan, Inc., priority 2006, dated 2013).

What was measured:
PDGFRβ = target: T1, PDGFRβ (Homo sapiens, UniProt P09619); experiment: PDGFRβ Kinase Assay (poly-Glu-Tyr ELISA); assay type: biochemical; settings: purified cytoplasmic domain PDGFR-b protein, 36 μM ATP
T1 construct: 200-300 ng purified cytoplasmic domain PDGFR-b protein (Millipore); purchased Millipore
Description: Biochemical PDGFRβ kinase assays were performed in 96 well microtiter plates that were coated overnight with 75 μg of poly-Glu-Tyr (4:1) in 10 mM Phosphate Buffered Saline (PBS), pH 7.4. The coated plates were washed with 2 mls per well PBS+0.05% Tween-20 (PBS-T), blocked by incubation with PBS containing 1% BSA, then washed with 2 mls per well PBS-T prior to starting the reaction. Reactions were carried out in 100 μL reaction volumes containing 36 μM ATP in kinase buffer (50 mM Hepes buffer pH 7.4, 20 mM MgCl2, 0.1 mM MnCl2 and 0.2 mM Na3VO4). Test compounds were reconstituted in 100% DMSO and added to the reaction to give a final DMSO concentration of 5%. Reactions were initiated by the addition 20 ul per well of kinase buffer containing 200-300 ng purified cytoplasmic domain PDGFR-b protein (Millipore). Following a 60 minute incubation at 30° C., the reactions were washed 2 mls per well PBS-T. […] of a monoclonal anti-phosphotyrosine antibody-peroxidase conjugate diluted 1:10,000 in PBS-T was added to the wells for 30 minutes. Following a 2 mls per well wash with PBS-Tween-20, 100 μl of O-Phenylenediamine Dihydrochloride in phosphate-citrate buffer, containing urea hydrogen peroxide, was added to the wells for 7-10 minutes as a colorimetric substrate for the peroxidase. The reaction was terminated by the addition of 100 μl of 2.5N H2SO4 to each well and read using a microplate ELISA reader set at 492 nm. IC50 values for compound inhibition were calculated directly from graphs of optical density (arbitrary units) versus compound concentration following subtraction of blank values.

VEGFR1 = VEGFR1 (Homo sapiens, UniProt P17948); experiment: VEGFR1 Kinase; assay type: biochemical
VEGFR2 [1] = target: T2, VEGFR2 (Homo sapiens, UniProt P35968); experiment: VEGFR2 Cellular Assay (FLIPR, VEGF induced increases in intracellular calcium in HUVEC); assay type: cell-based; design: host or cells: HUVEC; settings: VEGF165 stimulation (10 ng/mL), Fluo-4
Description: Automated FLIPR (Fluorometric Imaging Plate Reader) technology was used to screen for inhibitors of VEGF induced increases in intracellular calcium levels in fluorescent dye loaded endothelial cells. HUVEC (human umbilical vein endothelial cells) (Clonetics) were seeded in 384-well fibronectin coated black-walled plates overnight @ 37° C./5% CO2. Cells were loaded with calcium indicator Fluo-4 for 45 minutes at 37° C. Cells were washed 2 times (El×405, Biotek Instruments) to remove extracellular dye. For screening, cells were pre-incubated with test agents for 30 minutes, at a single concentration (10 uM) or at concentrations ranging from 0.0001 to 10.0 uM followed by VEGF165 stimulation (10 ng/mL). Changes in fluorescence at 516 nm were measured simultaneously in all 384 wells using a cooled CCD camera. Data were generated by determining max-min fluorescence levels for unstimulated, stimulated, and drug treated samples. IC50 values for test compounds were calculated from % inhibition of VEGF stimulated responses in the absence of inhibitor.
Target sequence in this assay (P35968 20-1356): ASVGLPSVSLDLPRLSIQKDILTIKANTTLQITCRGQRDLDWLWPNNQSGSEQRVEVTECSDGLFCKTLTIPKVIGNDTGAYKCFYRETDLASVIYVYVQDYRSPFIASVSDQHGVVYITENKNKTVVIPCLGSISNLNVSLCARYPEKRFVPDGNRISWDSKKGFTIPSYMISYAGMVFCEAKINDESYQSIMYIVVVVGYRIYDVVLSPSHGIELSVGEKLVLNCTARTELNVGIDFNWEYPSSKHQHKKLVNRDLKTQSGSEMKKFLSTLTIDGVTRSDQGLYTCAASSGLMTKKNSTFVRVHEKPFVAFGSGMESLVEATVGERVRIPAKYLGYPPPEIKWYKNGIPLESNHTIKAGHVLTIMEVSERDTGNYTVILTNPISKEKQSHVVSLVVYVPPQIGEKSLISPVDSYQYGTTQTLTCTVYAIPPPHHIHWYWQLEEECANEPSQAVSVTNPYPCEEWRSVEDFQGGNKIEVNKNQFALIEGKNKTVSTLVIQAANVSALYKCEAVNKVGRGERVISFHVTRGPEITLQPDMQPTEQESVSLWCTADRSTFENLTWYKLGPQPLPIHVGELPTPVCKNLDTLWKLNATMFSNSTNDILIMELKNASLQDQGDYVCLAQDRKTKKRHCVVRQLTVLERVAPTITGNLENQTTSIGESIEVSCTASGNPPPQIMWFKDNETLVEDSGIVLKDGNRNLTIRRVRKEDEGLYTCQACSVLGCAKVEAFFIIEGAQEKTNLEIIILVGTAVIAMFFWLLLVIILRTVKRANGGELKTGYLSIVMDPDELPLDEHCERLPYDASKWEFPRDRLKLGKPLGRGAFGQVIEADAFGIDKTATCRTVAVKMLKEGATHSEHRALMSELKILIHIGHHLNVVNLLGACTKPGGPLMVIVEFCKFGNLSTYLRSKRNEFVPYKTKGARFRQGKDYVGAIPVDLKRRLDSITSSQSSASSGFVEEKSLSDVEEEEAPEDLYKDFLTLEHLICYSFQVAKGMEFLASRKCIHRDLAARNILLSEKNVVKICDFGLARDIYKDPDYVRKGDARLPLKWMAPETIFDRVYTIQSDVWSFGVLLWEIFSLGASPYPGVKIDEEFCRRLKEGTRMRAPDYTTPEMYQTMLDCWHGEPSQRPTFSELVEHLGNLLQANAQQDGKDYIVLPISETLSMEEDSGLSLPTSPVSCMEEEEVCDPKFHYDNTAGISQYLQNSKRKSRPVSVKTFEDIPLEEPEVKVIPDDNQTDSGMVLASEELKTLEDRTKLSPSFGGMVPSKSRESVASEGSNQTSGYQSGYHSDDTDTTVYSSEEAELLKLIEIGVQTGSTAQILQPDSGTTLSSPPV

VEGFR2 [2] = target: T2, VEGFR2; experiment: VEGFR2 Kinase Assay (biochemical KDR kinase, poly-Glu-Tyr ELISA); design: 200-300 ng purified cytoplasmic domain KDR protein; purchased BPS Bioscience; settings: purified cytoplasmic domain KDR protein, 2.7 μM ATP
Description: Biochemical KDR kinase assays were performed in 96 well microtiter plates that were coated overnight with 75 μg/well of poly-Glu-Tyr (4:1) in 10 mM Phosphate Buffered Saline (PBS), pH 7.4. The coated plates were washed with 2 mls per well PBS+0.05% Tween-20 (PBS-T), blocked by incubation with PBS containing 1% BSA, then washed with 2 mls per well PBS-T prior to starting the reaction. Reactions were carried out in […] reaction volumes containing 2.7 μM ATP in kinase buffer (50 mM Hepes buffer pH 7.4, 20 mM MgCl2, 0.1 mM MnCl2 and 0.2 mM Na3VO4). Test compounds were reconstituted in 100% DMSO and added to the reaction to give a final DMSO concentration of 5%. Reactions were initiated by the addition 20 ul per well of kinase buffer containing 200-300 ng purified cytoplasmic domain KDR protein (BPS Bioscience, San Diego, Calif.). Following a 15 minute incubation at 30° C., the reactions were washed 2 mls per well PBS-T. 100 μl of a monoclonal anti-phosphotyrosine antibody-peroxidase conjugate diluted 1:10,000 in PBS-T was added to the wells for 30 minutes. Following a 2 mls per well wash with PBS-Tween-20, 100 μl of O-Phenylenediamine Dihydrochloride in phosphate-citrate buffer, containing urea hydrogen peroxide, was added to the wells for 7-10 minutes as a colorimetric substrate for the peroxidase. The reaction was terminated by the addition of 100 μl of 2.5NH2SO4 to each well and read using a microplate ELISA reader set at 492 nm. IC50 values for compound inhibition were calculated directly from graphs of optical density (arbitrary units) versus compound concentration following subtraction of blank values.
Target sequence in this assay (P35968 786-1356 limits assumed): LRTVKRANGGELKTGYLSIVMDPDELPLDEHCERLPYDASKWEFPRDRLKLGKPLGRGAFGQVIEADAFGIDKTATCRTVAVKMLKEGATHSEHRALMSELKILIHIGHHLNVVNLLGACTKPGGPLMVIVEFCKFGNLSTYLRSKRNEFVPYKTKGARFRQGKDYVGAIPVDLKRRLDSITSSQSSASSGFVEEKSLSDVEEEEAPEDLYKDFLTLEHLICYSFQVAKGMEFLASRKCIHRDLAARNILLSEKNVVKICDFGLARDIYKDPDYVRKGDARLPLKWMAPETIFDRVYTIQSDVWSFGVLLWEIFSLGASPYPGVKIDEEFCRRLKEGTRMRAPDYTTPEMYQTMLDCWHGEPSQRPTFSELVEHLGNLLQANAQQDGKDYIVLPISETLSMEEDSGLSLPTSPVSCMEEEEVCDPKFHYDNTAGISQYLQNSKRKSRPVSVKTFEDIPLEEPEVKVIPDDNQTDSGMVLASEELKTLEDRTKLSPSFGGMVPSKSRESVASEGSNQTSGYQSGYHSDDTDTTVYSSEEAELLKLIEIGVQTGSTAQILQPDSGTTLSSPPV

T1 sequence (P09619 554-1106 limits assumed): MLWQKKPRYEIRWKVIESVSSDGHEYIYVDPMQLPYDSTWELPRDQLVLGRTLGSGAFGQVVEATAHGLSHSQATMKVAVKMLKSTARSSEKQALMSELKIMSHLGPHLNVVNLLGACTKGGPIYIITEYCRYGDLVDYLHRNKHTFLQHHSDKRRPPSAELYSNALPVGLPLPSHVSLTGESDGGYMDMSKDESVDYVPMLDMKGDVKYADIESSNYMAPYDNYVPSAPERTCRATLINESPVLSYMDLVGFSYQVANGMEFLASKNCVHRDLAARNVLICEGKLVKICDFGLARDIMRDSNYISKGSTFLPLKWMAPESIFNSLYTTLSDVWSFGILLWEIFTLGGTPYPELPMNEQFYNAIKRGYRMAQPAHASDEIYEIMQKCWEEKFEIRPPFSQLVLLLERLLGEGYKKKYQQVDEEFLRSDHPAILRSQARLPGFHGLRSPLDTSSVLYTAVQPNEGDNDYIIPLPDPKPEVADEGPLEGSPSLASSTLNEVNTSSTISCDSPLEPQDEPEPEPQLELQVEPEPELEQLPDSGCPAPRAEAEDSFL
Chain of VEGFR1 (P17948 27-1338, species assumed): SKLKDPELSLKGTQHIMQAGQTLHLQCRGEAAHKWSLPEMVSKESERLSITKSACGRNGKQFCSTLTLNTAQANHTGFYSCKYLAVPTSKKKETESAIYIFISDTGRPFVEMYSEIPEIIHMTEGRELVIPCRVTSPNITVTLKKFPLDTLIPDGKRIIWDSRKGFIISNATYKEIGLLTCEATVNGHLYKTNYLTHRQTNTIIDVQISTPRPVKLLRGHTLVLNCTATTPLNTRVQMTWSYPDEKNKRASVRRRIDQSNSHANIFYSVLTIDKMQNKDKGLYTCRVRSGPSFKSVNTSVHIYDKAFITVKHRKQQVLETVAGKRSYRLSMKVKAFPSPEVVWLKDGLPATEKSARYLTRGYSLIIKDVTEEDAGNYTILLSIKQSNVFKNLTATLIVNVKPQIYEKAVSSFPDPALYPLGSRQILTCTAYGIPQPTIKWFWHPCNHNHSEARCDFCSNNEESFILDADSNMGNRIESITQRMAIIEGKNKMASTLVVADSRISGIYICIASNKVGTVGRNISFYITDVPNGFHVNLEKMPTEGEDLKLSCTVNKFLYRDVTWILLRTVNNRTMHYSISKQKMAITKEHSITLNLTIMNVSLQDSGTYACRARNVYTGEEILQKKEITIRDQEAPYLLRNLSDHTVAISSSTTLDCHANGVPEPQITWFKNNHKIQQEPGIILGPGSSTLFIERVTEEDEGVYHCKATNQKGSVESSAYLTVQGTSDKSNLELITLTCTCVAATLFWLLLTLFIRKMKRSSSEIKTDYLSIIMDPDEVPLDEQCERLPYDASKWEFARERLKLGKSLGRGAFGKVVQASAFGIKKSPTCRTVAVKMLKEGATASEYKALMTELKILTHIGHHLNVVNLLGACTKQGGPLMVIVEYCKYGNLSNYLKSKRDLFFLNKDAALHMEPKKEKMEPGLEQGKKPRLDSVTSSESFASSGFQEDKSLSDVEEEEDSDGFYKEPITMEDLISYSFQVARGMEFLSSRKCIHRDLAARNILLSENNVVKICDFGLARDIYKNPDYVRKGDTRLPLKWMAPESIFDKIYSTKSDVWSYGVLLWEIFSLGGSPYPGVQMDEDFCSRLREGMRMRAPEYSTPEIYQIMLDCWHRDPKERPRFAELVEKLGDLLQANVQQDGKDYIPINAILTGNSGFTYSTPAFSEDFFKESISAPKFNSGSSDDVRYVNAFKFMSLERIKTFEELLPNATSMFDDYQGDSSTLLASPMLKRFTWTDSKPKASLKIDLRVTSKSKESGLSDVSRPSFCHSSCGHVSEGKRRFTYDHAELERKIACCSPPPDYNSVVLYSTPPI

| IC50 (PDGFRβ) [nM] | IC50 (VEGFR1) [nM] | IC50 (VEGFR2 [1]) [nM] | IC50 (VEGFR2 [2]) [nM] | Compound |
| --- | --- | --- | --- | --- |
| 50 | 14 | < 1 | 11 | COC(=O)CCCCS(=O)(CCCCC(=O)OC)=NC(=O)c1cnc(N)c(C#Cc2cccc(C(=O)Nc3cc(C)ccc3F)c2)c1 [Example 14, Dimethyl 5,5′-[N-({6-amino-5-[(3-{[(2-fluoro-5-methylphenyl)amino]carbonyl}phenyl)ethynyl]pyridin-3-yl}carbonyl)sulfonimidoyl]dipentanoate] |
| 20 | 23 | 5 | 13 | COC(=O)CCCCS(=O)(CCCCC(=O)OC)=NC(=O)c1cnc(N)c(C#Cc2ccc(NC(=O)Nc3cc(C)ccc3F)cc2)c1 [Example 19, Dimethyl 5,5′-{N-[(6-amino-5-{[4-({[(2-fluoro-5-methylphenyl)amino]carbonyl}amino)phenyl]ethynyl}pyridin-3-yl)carbonyl]sulfonimidoyl}dipentanoate] |
